Data reported in patent publication US20160220569A1, “CDK4/6 Inhibitor Dosage Formulations For The Protection Of Hematopoietic Stem And Progenitor Cells During Chemotherapy” (G1 Therapeutics, Inc., priority 2015, published 2016).
Where “and” joins values, the source holds several entries; their conditions need not be identical. Equal values may be shown once.

Assay: 14-day oral gavage toxicokinetic study in rats
Assay type: in vivo
Details: for Compound 1 Plasma Concentration: daily oral 2 mg/kg (Group 7), individual animals
Description: Plasma was obtained from blood samples collected from rats in a composite sampling scheme, with 3 samples collected per sex, per dose, at each target collection time, as illustrated in Table 21 to Table 25. Samples were collected from the vehicle control group on Day 1 and Day 14 at 3 hour after administration. […] Blood samples were collected in tubes containing K3EDTA as an anticoagulant and placed on ice until processed to plasma via centrifugation. Samples were stored frozen at −80° C. until shipment to the bioanalytical laboratory for analysis.
The following parameters were determined:
Cmax: Maximum observed plasma concentration (ng/mL).
A value of 0 ng/mL was assigned to all values below the lower limit of quantitation (BLQ, <10.0 ng/mL).
AUC(0-inf): Area under the plasma concentration vs. time curve extrapolated from 0 to infinity (ng*h/mL), calculated as AUC(0-t)+AUC(t-inf) where AUC(t-inf) is calculated as last measurable concentration (CLast) divided by ke, where ke is the elimination rate constant determined by linear regression of the last three analytically measured points on the log plasma concentration vs. time curve. The selection criteria of the data points for inclusion in the calculation of ke required that at least three data points representing the terminal phase (after Tmax) were regressed and that R2≧0.850 when rounded.
CL: Clearance (L/h/kg), calculated as the dose divided by AUC(0-t).
Vd: Volume of distribution (L/kg), calculated as dose divided by the product of ke and AUC(0-inf).
Vdss: Steady state volume of distribution (L/kg), calculated as clearance […] mean residence time, where mean residence time is calculated as the area under the first moment curve divided by AUC(0-t).
t½: Elimination half-life (h), calculated as ln(2)/ke, where ke is the elimination rate constant determined by linear regression. Half-life was defined as not determined if regression criteria (specified in AUC(0-inf) above) were not met.
Cmax/Dose: Normalized Cmax, calculated as Cmax divided by total dose.
AUC/Dose: Normalized AUC, calculated as AUC(0-t) divided by total dose.
ii. Statistical Analysis Mean and standard deviation (SD) were calculated in Watson. Values of BLQ were assigned a value of 0 ng/mL for mean calculations. Concentration values and derived TK parameters were reported to three significant figures.

[1] = male, rat, plasma, po, 30 mg/kg, oral 30 mg/kg, Study Day 14, Male

## CN1CCN(c2ccc(Nc3ncc4cc5n(c4n3)C3(CCCCC3)CNC5=O)nc2)CC1 [Compound 1, 2′-((5-(4-methylpiperazin-1-yl)pyridin-2-yl)amino)-7′,8′-dihydro-6′H-spiro[cyclohexane-1,9′-pyrazino[1′,2′:1,5]pyrrolo[2,3-d]pyrimidin]-6′-one]
[1]
  AUC(0-t): 29.3 µg·h/mL
  Cmax: 2.03 µg/mL
  Tmax: 4 h
male, rat, plasma, po, 30 mg/kg, oral 30 mg/kg, Study Day 14, Male, read-out: t½ (converted)
  half-life: 4.88 h
rats, Female, Day 1, 0.5 h, 2 mg/kg
  Compound 1 Plasma Concentration: 69.7 ng/mL and 120 ng/mL
rats, Female, Day 1, 1 h, 2 mg/kg
  Compound 1 Plasma Concentration: 53.3 ng/mL and 115 ng/mL and 106 ng/mL
rats, Female, Day 1, 2 h, 2 mg/kg
  Compound 1 Plasma Concentration: 185 ng/mL and 187 ng/mL
rats, Female, Day 1, 4 h, 2 mg/kg
  Compound 1 Plasma Concentration: 90.2 ng/mL and 201 ng/mL and 234 ng/mL
rats, Female, Day 1, 8 h, 2 mg/kg
  Compound 1 Plasma Concentration: 70.0 ng/mL and 69.2 ng/mL and 151 ng/mL
rats, Female, Day 1, 12 h, 2 mg/kg
  Compound 1 Plasma Concentration: 100 ng/mL and 54.7 ng/mL
rats, Female, Day 1, 24 h, 2 mg/kg
  Compound 1 Plasma Concentration: BLQ (Below the lower limit of quantitation (<10.0 ng/mL)) and 28.8 ng/mL and 10.2 ng/mL
rats, Female, Day 1, […]
  Compound 1 Plasma Concentration: BLQ (Below the lower limit of quantitation (<10.0 ng/mL))
rats, Female, Day 14, 0.5 h, 2 mg/kg
  Compound 1 Plasma Concentration: 108 ng/mL
rats, Female, Day 14, 1 h, 2 mg/kg
  Compound 1 Plasma Concentration: 113 ng/mL
rats, Female, Day 14, 2 h, 2 mg/kg
  Compound 1 Plasma Concentration: 200 ng/mL
rats, Female, Day 14, 4 h, 2 mg/kg
  Compound 1 Plasma Concentration: 119 ng/mL
rats, Female, Day 14, 8 h, 2 mg/kg
  Compound 1 Plasma Concentration: 54.0 ng/mL
rats, Female, Day 14, 12 h, 2 mg/kg
  Compound 1 Plasma Concentration: 65.4 ng/mL and 32.0 ng/mL
rats, Female, Day 14, 24 h, 2 mg/kg
  Compound 1 Plasma Concentration: BLQ (Below the lower limit of quantitation (<10.0 ng/mL))
rats, Female, Day 14, Predose
  Compound 1 Plasma Concentration: BLQ (Below the lower limit of quantitation (<10.0 ng/mL))
rats, Female, Day 14, […], 2 mg/kg
  Compound 1 Plasma Concentration: BLQ (Below the lower limit of quantitation (<10.0 ng/mL))
rats, Male, Day 1, 0.5 h, 2 mg/kg
  Compound 1 Plasma Concentration: 64.1 ng/mL and 74.1 ng/mL and 35.0 ng/mL
rats, Male, Day 1, 1 h, 2 mg/kg
  Compound 1 Plasma Concentration: 47.1 ng/mL and 65.2 ng/mL
rats, Male, Day 1, 2 h, 2 mg/kg
  Compound 1 Plasma Concentration: 113 ng/mL and 95.5 ng/mL
rats, Male, Day 1, 4 h, 2 mg/kg
  Compound 1 Plasma Concentration: 107 ng/mL and 148 ng/mL
rats, Male, Day 1, 8 h, 2 mg/kg
  Compound 1 Plasma Concentration: 108 ng/mL and 64.1 ng/mL
rats, Male, Day 1, 12 h, 2 mg/kg
  Compound 1 Plasma Concentration: 61.3 ng/mL and 47.8 ng/mL
rats, Male, Day 1, 24 h
  Compound 1 Plasma Concentration: BLQ (Below the lower limit of quantitation (<10.0 ng/mL))
rats, Male, Day 1, […]
  Compound 1 Plasma Concentration: BLQ (Below the lower limit of quantitation (<10.0 ng/mL))
rats, Male, Day 14, 0.5 h, 2 mg/kg
  Compound 1 Plasma Concentration: 49.0 ng/mL and 55.7 ng/mL
rats, Male, Day 14, 1 h, 2 mg/kg
  Compound 1 Plasma Concentration: 34.9 ng/mL and 61.2 ng/mL
rats, Male, Day 14, 2 h, 2 mg/kg
  Compound 1 Plasma Concentration: 109 ng/mL and 91.3 ng/mL
rats, Male, Day 14, 4 h, 2 mg/kg
  Compound 1 Plasma Concentration: 119 ng/mL and 112 ng/mL
rats, Male, Day 14, 8 h, 2 mg/kg
  Compound 1 Plasma Concentration: 112 ng/mL and 102 ng/mL
rats, Male, Day 14, 12 h, 2 mg/kg
  Compound 1 Plasma Concentration: 50.8 ng/mL and 45.6 ng/mL
rats, Male, Day 14, 24 h
  Compound 1 Plasma Concentration: BLQ (Below the lower limit of quantitation (<10.0 ng/mL))
rats, Male, Day 14, Predose
  Compound 1 Plasma Concentration: BLQ (Below the lower limit of quantitation (<10.0 ng/mL))
rats, Male, Day 14, […]
  Compound 1 Plasma Concentration: BLQ (Below the lower limit of quantitation (<10.0 ng/mL))
rats, oral 2 mg/kg, Day 1, 24 h, Male, BLQ = <10.0 ng/mL
  Mean Compound 1 Plasma Concentration: BLQ
rats, oral 2 mg/kg, Day 1, […], Female, BLQ = <10.0 ng/mL
  Mean Compound 1 Plasma Concentration: BLQ
rats, oral 2 mg/kg, Day 1, […], Male, BLQ = <10.0 ng/mL
  Mean Compound 1 Plasma Concentration: BLQ
rats, oral 2 mg/kg, Day 1, […], Overall, BLQ = <10.0 ng/mL
  Mean Compound 1 Plasma Concentration: BLQ
rats, oral 2 mg/kg, Day 14, 24 h, Male, BLQ = <10.0 ng/mL
  Mean Compound 1 Plasma Concentration: BLQ
rats, oral 2 mg/kg, Day 14, Pre-dose, Female, BLQ = <10.0 ng/mL
  Mean Compound 1 Plasma Concentration: BLQ
rats, oral 2 mg/kg, Day 14, Pre-dose, Male, BLQ = <10.0 ng/mL
  Mean Compound 1 Plasma Concentration: BLQ
rats, oral 2 mg/kg, Day 14, Pre-dose, Overall, BLQ = <10.0 ng/mL
  Mean Compound 1 Plasma Concentration: BLQ
rats, oral 2 mg/kg, Day 14, […], Male, BLQ = <10.0 ng/mL
  Mean Compound 1 Plasma Concentration: BLQ
rats, oral 5 mg/kg, Day 14, Pre-dose, Male
  Mean Compound 1 Plasma Concentration: 20.0 ng/mL
rats, oral 5 mg/kg, Day 14, Pre-dose, Overall
  Mean Compound 1 Plasma Concentration: 18.6 ng/mL
rats, oral 15 mg/kg, Day 14, Pre-dose, Female
  Mean Compound 1 Plasma Concentration: 120 ng/mL
rats, oral 15 mg/kg, Day 14, Pre-dose, Male
  Mean Compound 1 Plasma Concentration: 78.0 ng/mL
rats, oral 15 mg/kg, Day 14, Pre-dose, Overall
  Mean Compound 1 Plasma Concentration: 99.2 ng/mL
rats, oral 30 mg/kg, Day 14, Pre-dose, Female
  Mean Compound 1 Plasma Concentration: 336 ng/mL
rats, oral 30 mg/kg, Day 14, Pre-dose, Overall
  Mean Compound 1 Plasma Concentration: 254 ng/mL
rats, oral, Days 1 and 14
  systemic exposure with increasing dose level: increased roughly proportionally
